Measured values from PMC9050506 (RSC Advances, 2020).

B1: CVN2L0-V4: CVN2L0 variant with Cys–Cys mutagenesis to Trp–Met and Glu–Arg, two disulfide bonds (protein)
chain: LGKFSQTCYNSAIQGSVLTSTCERTNGGYNTSSIDLNSVIENVDGSLKWQPSNFIETWRNTQLAGSSELAAEMKTRAQQFVSTKINLDDHIANIDGTLKYELGKFSQTCYNSAIQGSVLTSTCERTNGGYNTSSIDLNSVIENVDGSLKWQPSNFIETERNTQLAGSSELAAERKTRAQQFVSTKINLDDHIANIDGTLKYE
modifications: left off: His6, N-terminal, state not stated

System: Recombinant influenza A virus hemagglutinin H3 protein (HA)
Settings: SPR sensorgrams Fig. 3A-D

| Molecule | Rmax, binding to HA |
| --- | --- |
| CVN2L0-V2: CVN2L0 variant with one C58E–C73R substitution, three disulfide bonds | 723 RU |
| B1 | 34 RU |
